Test results published in patent publication US8487006B2, “Method of enhancing TGF-β signalling” (Auxagen, Inc., priority 2008, dated 2013).

What was measured:
Assay type in all cases: cell-based
[1] = test system: TGF-β1-stimulated Smad2 phosphorylation in Mv1Lu cells; assay: TGF-β1-stimulated Smad2 phosphorylation, quantitative Western blot (P-Smad2/Smad2); conditions: for time dependence of the effect on TGF-β1-stimulated Smad2 phosphorylation: 20 LM MDC, 40 μM monensin, 20 μM TFP, 100 pM TGF-β1, several time periods; for concentration dependence of the effect on TGF-β1-stimulated Smad2 phosphorylation: several concentrations of the inhibitors, 100 pM TGF-β1 for 30 min
Procedure: (A-I, K) Cells were pretreated with 10 mg/ml β-CD (A, K), 20 LM MDC (B), 40 μM monensin (C), 20 μM TFP (D) and 0.45 M sucrose (K) or several concentrations (as indicated) of β-CD (E), TFP (F), monensin (G), chloroquine (H), dynasore (I), at 37° C. for 1 h. The cells were then stimulated with vehicle only or […] TGF-β1 (A to I) or several concentrations (as indicated) of TGF-β1 (K). After several time periods, as indicated, at 37° C., cell lysates were analysed by 7.5% SDS PAGE followed by Western blot analysis using antibodies to P-Smad2 and Smad2 and chemiluminescence development (a or top) and quantitation by densitometry (b or bottom). The relative level of P-Smad2 was expressed as arbitrary units (A.U.) (A, B, C, D, K) (b). The relative level of P-Smad2 in cells treated with TGF-β alone was taken as 100% of control (E to I, bottom). The data shown is representative of 3 independent experiments. (J) Cells were pretreated with 10 mg/ml β-CD (c,d) at 37° C. for 1 h. The cells were then stimulated with vehicle only (a) or with 100 pM TGF-β (b,d). After 30 min at 37° C. the cells were fixed and subjected to indirect immunofluorescent staining using antibody to P-Smad2. The magnification is 200×. The data shown is representative of 3 independent experiments.
If TGF-β-induced signaling occurs in endosomes, as reported previously^6-15, inhibitors of clathrin-dependent endocytosis would be expected to attenuate TGF-β-stimulated signaling such as Smad2 phosphorylation and nuclear colocalization^4,5. To test this, Mv1Lu cells were pretreated with vehicle only or with clathrin-dependent endocytosis inhibitors at 37° C. for 30 min and then treated with or without 100 pM TGF-β1. After several time periods, the relative levels of P-Smad2 in treated and stimulated cells were analyzed by quantitative Western blot analysis using antibodies to P-Smad2 and Smad2. […] After stimulation of cells with TGF-β1 for 60 min, β-CD, TFP, MDC and monensin enhanced TGF-β1-stimulated Smad2 phosphorylation by ˜1.5-2.5 fold (FIGS. 1Ab, 1Bb, 1Cb, and 1Db). To further characterize the effects of these inhibitors on Smad2 phosphorylation, Mv1Lu cells were pretreated with vehicle only or with several concentrations of the inhibitors at 37° C. for 30 min and then stimulated with 100 pM of TGF-β1. After 30 min at 37° C., cell lysates were subjected to Western blot analysis using antibodies to P-Smad2 and Smad2 followed by quantitation with densitometry. […] To determine the effect of β-CD on TGF-β1-stimulated nuclear localization of P-Smad2, Mv1Lu cells were pretreated with vehicle only or with β-CD (10 mg/ml). After 1 h at 37° C., cells were stimulated with TGF-β1 ([…]) for 30 min. The nuclear localization of P-Smad2 was then analyzed by indirect fluorescent staining.
To define the coated-pit stages that are important in TGF-β1-induced signaling, we treated Mv1Lu cells with hyperosmotic sucrose (0.45 M) or β-CD and examined TGF-β1-stimulated Smad2 phosphorylation in these cells. […] In cells stimulated with 100 pM TGF-β1, hyperosmotic sucrose attenuated Smad2 phosphorylation by ˜60% (FIG. 1Kb). On the other hand, β-CD enhanced TGF-β1-stimulated Smad2 phosphorylation at all concentrations of TGF-β1. It enhanced TGF-β1-stimulated Smad2 phosphorylation by 2-4 fold when compared with the control (treatment without β-CD) (FIGS. 1Ka and 1Kb).

[2] = test system: nuclear localization of P-Smad2 in Mv1Lu cells; assay: Nuclear localization of P-Smad2, indirect immunofluorescent staining; conditions: β-CD 10 mg/ml 1 h, then TGF-β1 (10 pM) for 30 min
Procedure: (A-I, K) Cells were pretreated with 10 mg/ml β-CD (A, K), 20 LM MDC (B), 40 μM monensin (C), 20 μM TFP (D) and 0.45 M sucrose (K) or several concentrations (as indicated) of β-CD (E), TFP (F), monensin (G), chloroquine (H), dynasore (I), at 37° C. for 1 h. The cells were then stimulated with vehicle only or […] TGF-β1 (A to I) or several concentrations (as indicated) of TGF-β1 (K). After several time periods, as indicated, at 37° C., cell lysates were analysed by 7.5% SDS PAGE followed by Western blot analysis using antibodies to P-Smad2 and Smad2 and chemiluminescence development (a or top) and quantitation by densitometry (b or bottom). The relative level of P-Smad2 was expressed as arbitrary units (A.U.) (A, B, C, D, K) (b). […]
If TGF-β-induced signaling occurs in endosomes, as reported previously^6-15, inhibitors of clathrin-dependent endocytosis would be expected to attenuate TGF-β-stimulated signaling such as Smad2 phosphorylation and nuclear colocalization^4,5. […] After several time periods, the relative levels of P-Smad2 in treated and stimulated cells were analyzed by quantitative Western blot analysis using antibodies to P-Smad2 and Smad2. […] After 30 min at 37° C., cell lysates were subjected to Western blot analysis using antibodies to P-Smad2 and Smad2 followed by quantitation with densitometry. […]

[3] = test system: TβR-I and SARA at the plasma membrane in Mv1Lu cells; assay: Co-localization and accumulation of TβR-I and SARA, immunofluorescent microscopy; conditions: 20 μM TFP, 10 mg/ml β-CD, 40 μM dynasore, 200 μM chloroquine, with 100 pM TGF-β1, 30 min
Procedure: Cells were pretreated with vehicle only or 20 μM TFP, 10 mg/ml β-CD, 40 μM dynasore (Dyn) and 200 μM chloroquine (CQ) at 37° C. for 1 h. Treated cells were then stimulated with and without 100 pM TGF-β1. After 30 min at 37° C., cells were fixed and analyzed by indirect immunofluorescent staining using antibody to TβR-I (panels 1-10) and SARA (panels 11-20), DAPI (nuclear) staining was also performed (panels 21-30). Merged staining is also shown (panels 31-40). Insets indicate the co-localization and accumulation of SARA and TβR-I at the plasma membrane.
TGF-β stimulates Smad2 phosphorylation by inducing association of TβR-I and SARA^6,7 (which serves as an anchor for Smad2), binding of Smad2 to SARA, and subsequent phosphorylation of Smad2 by TβR-I in the TβR-1-SARA-Smad2 complex. If clathrin-dependent endocytosis inhibitors enhance TGF-β-induced signaling (TGF-β-stimulated Smad2 phosphorylation) by increasing accumulation of TβR-I/TβR-II complexes at the coated pits, they should promote co-localization and accumulation of TβR-I and SARA at the plasma membrane. To test this, Mv1Lu cells were stimulated with 100 pM TGF-β1. After 30 min at 37° C., […] analyzed by immunofluorescent microscopy using antibodies to TβR-I and SARA. […] This is consistent with the previous report that TGF-β enhances TGF-β receptor internalization^16.

Compound	time dependence of the effect on TGF-β1-stimulated Smad2 phosphorylation ([1]; 10 mg/ml β-CD)	concentration dependence of the effect on TGF-β1-stimulated Smad2 phosphorylation [1]	nuclear localization of P-Smad2 [2]	enhancement of TGF-β1-stimulated Smad2 phosphorylation compared with the control (treatment without β-CD) ([1]; 10 mg/ml β-CD, all concentrations of TGF-β1)	co-localization and accumulation of TβR-I and SARA at the plasma membrane, co-treatment with TGF-β1 [3]	attenuation of Smad2 phosphorylation ([1]; hyperosmotic sucrose 0.45 M, cells stimulated with 100 pM TGF-β1) [%]	effect on TGF-β1-stimulated Smad2 phosphorylation ([1]; hyperosmotic sucrose 0.45 M, various concentrations of TGF-β1)
CC[C@@]1([C@@H]2O[C@@H]([C@H]3O[C@@](O)(CO)[C@H](C)C[C@@H]3C)C[C@@H]2C)CC[C@H]([C@]2(C)CC[C@]3(C[C@H](O)[C@@H](C)[C@@H]([C@@H](C)[C@@H](OC)[C@H](C)C(=O)O)O3)O2)O1 [monensin]	enhanced TGF-β1-stimulated Smad2 phosphorylation in a time-dependent manner	enhanced TGF-β1-stimulated Smad2 phosphorylation in a concentration-dependent manner	–	–	–	–	–
CN(C)c1cccc2c(S(=O)(=O)NCCCCCN)cccc12 [MDC, monodansylcadaverine]	enhanced TGF-β1-stimulated Smad2 phosphorylation in a time-dependent manner	–	–	–	–	–	–
methyl-β-cyclodextrin [β-CD]	enhanced TGF-β1-stimulated Smad2 phosphorylation in a time-dependent manner	enhanced TGF-β1-stimulated Smad2 phosphorylation in a concentration-dependent manner	β-CD and TGF-β1 together promoted nuclear localization of P-Smad2	2-4 fold	promoted co-localization and accumulation of TβR-I and SARA at the plasma membrane	–	–
CN(C)CCCN1c2ccccc2Sc2ccc(C(F)(F)F)cc21 [TFP, triflupromazine]	enhanced TGF-β1-stimulated Smad2 phosphorylation in a time-dependent manner	enhanced TGF-β1-stimulated Smad2 phosphorylation in a concentration-dependent manner	–	–	promoted co-localization and accumulation of TβR-I and SARA at the plasma membrane	–	–
OC[C@H]1O[C@@](CO)(O[C@H]2O[C@H](CO)[C@@H](O)[C@H](O)[C@H]2O)[C@@H](O)[C@@H]1O [hyperosmotic sucrose, sucrose]	–	–	–	–	–	~60	inhibited TGF-β1-stimulated Smad2 phosphorylation
CCN(CC)CCCC(C)Nc1ccnc2cc(Cl)ccc12 (stereo not drawn) [chloroquine]	–	enhanced TGF-β1-stimulated Smad2 phosphorylation in a concentration-dependent manner	–	–	promoted co-localization and accumulation of TβR-I and SARA at the plasma membrane	–	–
